Data on 18 molecules can be found in patent US20050222146A1, “N-substituted-n-sulfonylaminocyclopropane compounds and pharmaceutical use thereof” (priority 2003, published 2005).

In assay [1] the target is T1, MMP-1 (Homo sapiens, UniProt P03956).
T1 sequence (P03956 100-469): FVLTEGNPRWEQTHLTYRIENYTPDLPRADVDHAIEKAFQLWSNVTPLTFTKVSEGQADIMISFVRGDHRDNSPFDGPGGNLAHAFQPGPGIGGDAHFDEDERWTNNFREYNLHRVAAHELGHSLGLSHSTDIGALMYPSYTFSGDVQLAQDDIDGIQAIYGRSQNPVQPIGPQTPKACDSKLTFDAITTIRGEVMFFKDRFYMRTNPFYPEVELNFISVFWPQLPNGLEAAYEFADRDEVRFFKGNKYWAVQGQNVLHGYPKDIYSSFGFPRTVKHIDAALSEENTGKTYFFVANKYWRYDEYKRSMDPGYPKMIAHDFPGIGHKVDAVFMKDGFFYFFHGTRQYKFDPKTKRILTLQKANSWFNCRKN
Description: MMP-1 inhibitory action, Type I collagen Activity Measurement kit (FITC-labeled collagen type I). Format: biochemical. To be noted: 37° C. for 3 hr, read-out: Experimental Example 2 IC50 MMP1.

For assay [2], the target named is T2, aggrecanase-1 (Homo sapiens, UniProt O75173).
T2 sequence (O75173 213-837): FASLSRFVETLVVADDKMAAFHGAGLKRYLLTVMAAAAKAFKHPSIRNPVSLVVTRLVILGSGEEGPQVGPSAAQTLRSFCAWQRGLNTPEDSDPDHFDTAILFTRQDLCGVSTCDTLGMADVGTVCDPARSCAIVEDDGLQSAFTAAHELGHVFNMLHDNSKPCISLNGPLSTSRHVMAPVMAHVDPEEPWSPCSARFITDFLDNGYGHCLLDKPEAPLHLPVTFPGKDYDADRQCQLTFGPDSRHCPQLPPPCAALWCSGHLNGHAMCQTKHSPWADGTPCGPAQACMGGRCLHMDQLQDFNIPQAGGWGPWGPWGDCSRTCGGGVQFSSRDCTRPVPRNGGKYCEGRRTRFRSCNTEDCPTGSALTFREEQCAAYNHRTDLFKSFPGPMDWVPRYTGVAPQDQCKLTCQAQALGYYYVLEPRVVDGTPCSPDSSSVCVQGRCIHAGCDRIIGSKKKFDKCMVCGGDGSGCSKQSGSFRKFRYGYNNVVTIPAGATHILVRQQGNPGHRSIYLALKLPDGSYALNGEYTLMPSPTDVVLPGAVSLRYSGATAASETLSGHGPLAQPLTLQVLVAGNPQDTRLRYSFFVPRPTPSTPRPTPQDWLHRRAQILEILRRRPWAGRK
Description: Aggrecanase-1 inhibitory action, Particle Assay (GAG release from aggrecan-containing polyacrylamide particles). The assay is classed as biochemical. To be noted: 37° C. for 15 hr, read-out: Experimental Example 1 IC50 AG1. In a few lines:
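Enzyme and test compound (DMSO dilutions) in Tris-HCl buffer incubated with aggrecan-containing polyacrylamide particles at 37 °C for 15 hr. Released GAG in supernatant quantified with 1,9-dimethylmethylene blue at 595 nm against whale chondroitin sulfate standard; % inhibition versus enzyme-free and inhibitor-free wells gives IC50 (μM).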

What is called IC50 is the point on the concentration scale where inhibition reaches its midpoint. Regarding `O=C(O)c1cccc(CN([C@]2(C(=O)O)C[C@H]2c2cccc(OCCN3CCOCC3)c2)S(=O)(=O)c2ccc(-c3ccc(Cl)cc3)cc2)c1` (relative stereo) [Example 1-101, 3-{[{(1R*,2S*)-1-carboxy-2-[3-(2-morpholin-4-yl-ethoxy)-phenyl]-cyclopropyl}-(4′-chloro-biphenyl-4-sulfonyl)-amino]-methyl}-benzoic acid], the results for the IC50 in assay [1] and in assay [2] were no less than 10 µM and less than 1 µM, respectively.

On to `CNC(=O)c1cnn(CCN([C@]2(C(=O)O)C[C@H]2c2ccccc2)S(=O)(=O)c2ccc(-c3ccc(Cl)cc3)cc2)c1` (relative stereo) [Example 1-106, (1R*,2S*)—{(4′-chloro-biphenyl-4-sulfonyl)-[2-(4-methylcarbamoyl-pyrazol-1-yl)-ethyl]-amino}-2-phenyl-cyclopropanecarboxylic acid], for which the results for the IC50 in assay [1] and in assay [2] were no less than 1 µM and less than 1 µM, respectively.

Turning to `CC(C)(O)C(=O)NCCN([C@]1(C(=O)O)C[C@H]1c1ccccc1)S(=O)(=O)c1ccc(-c2ccc(Cl)cc2)cc1` (relative stereo) [Example 1-107, (1R*,2S*)-1-{(4′-chloro-biphenyl-4-sulfonyl)-[2-(2-hydroxy-2-methyl-propionylamino)-ethyl]-amino}-2-phenyl-cyclopropanecarboxylic acid], the IC50 in assay [1] is no less than 1 µM; in assay [2] it was less than 1 µM.

On to `O=C(O)c1cccc(CN([C@]2(C(=O)O)C[C@H]2c2cccc(OCCn3cccn3)c2)S(=O)(=O)c2ccc(-c3ccc(Cl)cc3)cc2)c1` (relative stereo) [Example 1-108, 3-{[{(1R*,2S*)-1-carboxy-2-[3-(2-pyrazol-1-yl-ethoxy)-phenyl]-cyclopropyl}-(4′-chloro-biphenyl-4-sulfonyl)-amino]-methyl}-benzoic acid], for which the 50% inhibitory concentration (IC50) is no less than 10 µM in assay [1] and less than 1 µM in assay [2].

As for `O=C(O)[C@@]1(N(CCNc2nnn[nH]2)S(=O)(=O)c2ccc(-c3ccc(Cl)cc3)cc2)C[C@H]1c1cccc(Oc2ccccc2)c1` (relative stereo) [Example 1-109, (1R*,2S*)-1-{(4′-chloro-biphenyl-4-sulfonyl)-[2-(1H-tetrazol-5-ylamino)-ethyl]-amino}-2-(3-phenoxy-phenyl)-cyclopropanecarboxylic acid], the figures for the IC50 in assay [1] and in assay [2] were no less than 10 µM and less than 0.1 µM, respectively.

Consider `O=C(O)[C@@]1(N(CCCNc2nn[nH]n2)S(=O)(=O)c2ccc(-c3ccc(Cl)cc3)cc2)C[C@H]1c1ccccc1` (relative stereo) [Example 1-110, (1R*,2S*)-1-{(4′-chloro-biphenyl-4-sulfonyl)-[3-(2H-tetrazol-5-ylamino)-propyl]-amino}-2-phenyl-cyclopropanecarboxylic acid], for which the IC50 was no less than 10 µM in assay [1] and less than 1 µM in assay [2].

Take `COC(=O)c1cn(CCN([C@]2(C(=O)O)C[C@H]2c2ccccc2)S(=O)(=O)c2ccc(-c3ccc(Cl)cc3)cc2)cn1` (relative stereo) [Example 1-112, 1-{2-[((1R*,2S*)-1-carboxy-2-phenyl-cyclopropyl)-(4′-chloro-biphenyl-4-sulfonyl)-amino]-ethyl}-1H-imidazole-4-carboxylic acid methyl ester]: the IC50 in assay [1] was no less than 10 µM; in assay [2] it was less than 1 µM.

As to `CNC(=O)c1cn(CCN([C@]2(C(=O)O)C[C@H]2c2ccccc2)S(=O)(=O)c2ccc(-c3ccc(Cl)cc3)cc2)cn1` (relative stereo) [Example 1-113, (R*,2S*)-1-{(4′-chloro-biphenyl-4-sulfonyl)-[2-(4-methylcarbamoyl-imidazol-1-yl)-ethyl]-amino}-2-phenyl-cyclopropanecarboxylic acid], the 50% inhibitory concentration (IC50) in assay [1] was no less than 10 µM; in assay [2], less than 0.1 µM.

Take `O=C(O)[C@@]1(N(CCO)S(=O)(=O)c2ccc(-c3ccc(Cl)cc3)cc2)C[C@H]1c1cccc(Oc2ccccc2)c1` (relative stereo) [Example 1-114, (1R*,2S*)-1-[(4′-chloro-biphenyl-4-sulfonyl)-(2-hydroxy-ethyl)-amino]-2-(3-phenoxy-phenyl)-cyclopropanecarboxylic acid]: the figures for the 50% inhibitory concentration (IC50) in assay [1] and in assay [2] were no less than 10 µM and less than 1 µM, respectively.

With `O=C(O)c1cccc(CN([C@]2(C(=O)O)C[C@H]2c2ccccc2)S(=O)(=O)N2CCN(c3ccc(Cl)cc3)CC2)c1` (relative stereo) [Example 1-115, 3-({((1R*,2S*)-1-carboxy-2-phenyl-cyclopropyl)-[4-(4-chloro-phenyl)-piperazine-1-sulfonyl]-amino}-methyl)-benzoic acid], the IC50 in assay [1] is no less than 10 µM; in assay [2], less than 1 µM.

As to `O=C(O)[C@]12[C@H](CCN1S(=O)(=O)c1ccc(-c3ccc(Cl)cc3)cc1)[C@H]2c1ccccc1` (relative stereo) [Example 2-02, (1R*, 5R*,6S*)-2-(4′-chlorobiphenyl-4-sulfonyl)-6-phenyl-2-aza-bicyclo[3.1.0]hexane-1-carboxylic acid], the IC50 in assay [1] and in assay [2] was no less than 10 µM each time.

Regarding `O=C(O)CN(C1(C(=O)O)C[C@H]1Cc1ccccc1)S(=O)(=O)c1ccc(-c2ccc(Cl)cc2)cc1` (stereo in doubt) [Example 1-3, (1S,2R)-2-benzyl-1-[carboxymethyl-(4′-chloro-biphenyl-4-sulfonyl)-amino]-cyclopropanecarboxylic acid], the IC50 in assay [1] was no less than 10 µM; in assay [2], less than 1 µM.

Consider `COc1cccc([C@@H]2CC2(C(=O)O)N(CC(=O)O)S(=O)(=O)c2ccc(-c3ccc(Cl)cc3)cc2)c1` (stereo in doubt) [Example 1-21, (1R*,2S)-1-[carboxymethyl-(4′-chloro-biphenyl-4-sulfonyl)-amino]-2-(3-methoxy-phenyl)-cyclopropanecarboxylic acid], for which the IC50 in assay [1] is no less than 10 µM; in assay [2], less than 1 µM.

`NC(=O)CN(C1(C(=O)O)C[C@H]1c1ccccc1)S(=O)(=O)c1ccc(-c2ccc(Cl)cc2)cc1` (stereo in doubt) [Example 1-36, (1R*,2S)-1-[carbamoylmethyl-(4′-chloro-biphenyl-4-sulfonyl)-amino]-2-phenyl-cyclopropanecarboxylic acid]: the IC50 is no less than 10 µM in assay [1] and less than 1 µM in assay [2].

`O=C(O)CN([C@]1(C(=O)O)C[C@H]1c1ccccc1)S(=O)(=O)c1ccc(-c2ccc(Cl)cc2)cc1` [Example 1-2, (1R,2S)-1-[carboxymethyl-(4′-chloro-biphenyl-4-sulfonyl)-amino]-2-phenyl-cyclopropanecarboxylic acid]: the values for the IC50 in assay [1] and in assay [2] were no less than 10 µM and less than 0.1 µM, respectively.

In the case of `O=C(O)CN(C1(C(=O)O)CC1c1cccc(OCc2ccccc2)c1)S(=O)(=O)c1ccc(-c2ccc(Cl)cc2)cc1` (stereo not drawn) [Example 1-50], the values for the IC50 in assay [1] and in assay [2] were no less than 1 µM and less than 1 µM, respectively.

For `O=C(O)C1(N(Cc2noc(=O)[nH]2)S(=O)(=O)c2ccc(-c3ccc(Cl)cc3)cc2)CC1c1ccccc1` (stereo not drawn) [Example 1-64, (R*,2S*)-1-[(4′-chlorobiphenyl-4-sulfonyl)-(5-oxo-4,5-dihydro[1.2.4]oxadiazol-3-ylmethyl)-amino]-2-phenylcyclopropanecarboxylic acid], the IC50 is no less than 10 µM in assay [1] and less than 0.1 µM in assay [2].

Regarding `O=C(O)c1cnn(CCN(C2(C(=O)O)CC2c2ccccc2)S(=O)(=O)c2ccc(-c3ccc(Cl)cc3)cc2)c1` (stereo not drawn) [Example 1-79, 1-{2-[(1R*,2S*)-1-carboxy-2-phenyl-cyclopropyl)-(4′-chloro-biphenyl-4-sulfonyl)-amino]-ethyl}-1H-pyrazol-4-carboxylic acid], the IC50 is no less than 10 µM in assay [1] and less than 0.1 µM in assay [2].
